ChEMBL document CHEMBL1133886, “Synthesis of N-alkyl substituted indolocarbazoles as potent inhibitors of human cytomegalovirus replication” (Bioorg Med Chem Lett, 2001)

Tests used:
[1] = target: Protein kinase C (PKC); assay: Inhibition of protein kinase C; assay type: protein assay
[2] = tested on: Human betaherpesvirus 5; assay: Inhibitory activity against human cytomegalo virus (HCMV) using standard plaque reduction assay; assay type: functional, organism-based
[3] = tested on: Vero; assay: Compound was evaluated for its cytotoxicity against Vero cell line; assay type: functional, Chlorocebus sabaeus
[4] = target: Protein kinase C (PKC) (Homo sapiens) (UniProt O94806+P41743+P17252+P05129+Q05655+P05771+Q05513+Q02156+P24723+Q15139+Q04759); assay: Percent inhibition of protein kinase C at 100 uM; assay type: protein assay
[5] = tested on: MRC5; assay: Inhibitory concentration against 2599R HCMV strain of MRC5 cells; assay type: functional, cell-based; conditions: Homo sapiens
[6] = tested on: MRC5; assay: Inhibitory concentration against Davis HCMV strain of MRC5 cells; assay type: functional, cell-based; conditions: Homo sapiens
[7] = tested on: MRC5; assay: Inhibitory concentration against C8805 HCMV strain of MRC5 cells; assay type: functional, cell-based; conditions: Homo sapiens
[8] = tested on: MRC5; assay: Inhibitory concentration against Xba F HCMV strain of MRC5 cells; assay type: functional, cell-based; conditions: Homo sapiens
[9] = tested on: MRC5; assay: Inhibitory concentration against Towne HCMV strain of MRC5 cells; assay type: functional, cell-based; conditions: Homo sapiens
[10] = tested on: MRC5; assay: Inhibitory concentration against AD169 HCMV strain of MRC5 cells; assay type: functional, cell-based; conditions: Homo sapiens
[11] = tested on: MRC5; assay: Inhibitory concentration against Towne strain of HCMV in MRC5 cells; assay type: functional, cell-based; conditions: Homo sapiens
[12] = tested on: MRC5; assay: Inhibitory concentration against 2599R strain of HCMV in MRC5 cells; assay type: functional, cell-based; conditions: Homo sapiens
[13] = tested on: MRC5; assay: Inhibitory concentration against AD169 strain of HCMV in MRC5 cells; assay type: functional, cell-based; conditions: Homo sapiens
[14] = tested on: MRC5; assay: Inhibitory concentration against Davis strain of HCMV in MRC5 cells; assay type: functional, cell-based; conditions: Homo sapiens
[15] = tested on: MRC5; assay: Inhibitory concentration against Xba F strain of HCMV in MRC5 cells; assay type: functional, cell-based; conditions: Homo sapiens

Structure (SMILES) | IC50 [1] [nM] | IC50 [2] [nM] | CCID50 [3] [µM] | inhibition [4] [%] | further results
CC(C)n1c2ccccc2c2c3c(c4c5ccccc5[nH]c4c21)C(=O)NC3=O | 50000 | 100 | 28 | – | –
CCCn1c2ccccc2c2c3c(c4c5ccccc5[nH]c4c21)C(=O)NC3=O | 50000 | 150 | <8 | – | –
Cn1c2ccccc2c2c3c(c4c5ccccc5[nH]c4c21)C(=O)NC3=O | – | 60 | >31 | 47 | –
O=C1NC(=O)c2c1c1c3ccccc3[nH]c1c1c2c2ccccc2n1Cc1ccccc1 | – | – | <31 | 23 | –
CCn1c2ccccc2c2c3c(c4c5ccccc5[nH]c4c21)C(=O)NC3=O | 10000 | 19 | >125 | – | IC50 [5]: 130 nM; IC50 [6]: 30 nM; IC50 [7]: 60 nM; IC50 [8]: 20 nM; IC50 [9]: 90 nM; IC50 [10]: 19 nM
O=C1NC(=O)c2c1c1c3ccccc3[nH]c1c1[nH]c3ccccc3c21 [STAUROSPORINE AGLYCON] | – | 200 | >125 | < 50 | –
Nc1nc2c(ncn2COC(CO)CO)c(=O)[nH]1 [GANCICLOVIR] | – | 3000 | >500 | – | IC50 [11]: 1500 nM; IC50 [12]: 1600 nM; IC50 [13]: 3000 nM; IC50 [14]: 1400 nM; IC50 [15]: > 10000 nM
CC(C)Cn1c2ccccc2c2c3c(c4c5ccccc5[nH]c4c21)C(=O)NC3=O | – | 30 | <8 | 71 | –
O=C1NC(=O)c2c1c1c3ccccc3[nH]c1c1c2c2ccccc2n1CC(F)(F)F | 25000 | 70 | <8 | – | –
